Test results published in article PMC7912516, “New Antimicrobials Based on the Adarotene Scaffold with Activity against Multi-Drug Resistant Staphylococcus aureus and Vancomycin-Resistant Enterococcus” (Antibiotics, 2021).
Several values for one entry are separate records, joined by “and”; a condition that tells them apart may be missing. Identical values can stand only once. Like-named read-outs stand apart in the source and are kept apart here.

What was measured:
[1] = system: S. aureus strain 1 (MDR clinical isolate, MRSA, mecA positive); assay: MIC/MBC by broth micro-dilution (CLSI); format: cell-based, Staphylococcus aureus; settings: for MIC / MBC: S. aureus Strain 1; for MBC: in square brackets; for bactericidal or bacteriostatic activity (killing rate = MBC/MIC): S. aureus and E. faecalis, bactericides killing rate = 1–4, bacteriostatic > 4
Description: (§1) The compounds were initially tested with a methicillin-resistant S. aureus and an E. faecalis clinical isolates (details in the experimental section), two MDR strains according to definition by Magiorakos et al.. The activity of studied compounds was assessed by broth micro-dilution method. Minimal Inhibitory Concentration (MIC), and Minimal Bactericidal Concentration (MBC) were determined and possible bacteriostatic or bactericidal activity was also investigated.
(§2) MICs and MBCs were determined according to CLSI (Clinical and Laboratory Standards Institute) guidelines, in triplicate. Results are shown as modal values of the three replicates. According to MIC and MBC data, the killing rate was calculated as the ratio between MBC and MIC on which basis it is possible to define the compounds tested as bactericides (killing rate = 1–4), or bacteriostatic (killing rate > 4).
(§3) Preparation of the solution containing molecules: for each molecule to be tested, solutions were made as DMSO stock, with a concentration of 2.560 mg/mL. Scalar dilutions were than prepared directly on plates by using Mueller Hinton Broth (MHB) as a growth medium (range 0.5–256 µg/mL).
(§4) Bacterial suspension preparation: cryostrains preserved at −80 °C were recovered by incubation in growth medium (Brain Heart Infusion Broth, BHI) for 24–48 h at 35 ± 2 °C followed by passages in agar growth medium (Columbia Blood Agar). Colonies with less than 30 h were suspended in MHB with the purpose to prepare a bacterial suspension with a turbidity of 0.5 MF, containing approximately 1.5 × 10^8 cfu/mL. This suspension was than diluted in MHB until reaching a final concentration of 5 × 10^4 CFU/well. Simultaneously, check in broth-microdilution only with solvent (in order to exclude that the effect of growth inhibition might be due to the drug solution solvent), positive growth control in absence of DMSO and drug, and negative purity control only with injection broth were performed.
S. aureus strain 1 (collection, MDR): mecA positive; MRSA, β-lactamase positive, resistant to ciprofloxacin, gentamicin and erythromycin.

[2] = system: E. faecalis strain 1 (MDR clinical isolate); assay: MIC/MBC by broth micro-dilution (CLSI); format: cell-based, Enterococcus faecalis; settings: for MBC: in square brackets
Description: as §1, §2, §3, §4
E. faecalis strain 1 (collection, MDR) vanA/B negative; aminoglycosides high-level resistant to aminoglycosides (gentamicin and streptomycin) and ampicillin.

[3] = system: tumor cell line H-460 NCI; assay: Cytotoxic activity, inhibition of cell growth; format: cell-based; settings: Homo sapiens, NCI-H460; H-460 cell line, unpublished results; ± SD; read-out: IC50 (concentration required for 50% inhibition of cell growth)
From the text: Table 1 Antimicrobial activity of adarotene derivatives 1–20 against MDR clinical strains of S. aureus and E. faecalis and cytotoxic activity. | column: IC50 ^a (µM)

[4] = system: S. aureus ATCC 25923 (reference strain); assay: MIC/MBC by broth micro-dilution (CLSI); format: cell-based; settings: Staphylococcus aureus; for MBC: ATCC25923, in square brackets, modal value; for MIC: ATCC25923, modal value
Description: (§5) To expand the previously obtained results compounds 16 and 17 were also tested on wider a selection of strains: two other MDR S. aureus and E. faecalis clinical isolates, the S. aureus ATCC 25923 and the E. faecalis ATCC 51299 reference strains. Compound 2, which was endowed with low antimicrobial activity, was tested as well, to confirm its low efficacy. Adarotene was used as control compound (Table 2).
as §2, §3, §4
S. aureus ATCC 25923 (reference strain): mecA negative; multi-susceptible.

[5] = system: S. aureus strain 2 (MDR clinical isolate); assay: MIC/MBC by broth micro-dilution (CLSI); format: cell-based; settings: Staphylococcus aureus, modal value; for MBC: in square brackets
Description: as §5, §2, §3, §4
S. aureus strain 2 (collection, MDR): mecA negative; β-lactamase positive, resistant to erythromycin, gentamicin, clindamycin and fusidic acid.

[6] = system: E. faecalis ATCC 51299 (reference strain, vanB positive); assay: MIC/MBC by broth micro-dilution (CLSI); format: cell-based; settings: Enterococcus faecalis; for MBC: ATCC51299, in square brackets, modal value; for MIC: ATCC51299, modal value
Description: as §5, §2, §3, §4
E. faecalis ATCC 51299 (reference strain): vanB positive.

[7] = system: E. faecalis strain 2 (MDR clinical isolate); assay: MIC/MBC by broth micro-dilution (CLSI); format: cell-based; settings: Enterococcus faecalis, modal value; for MBC: in square brackets
Description: as §5, §2, §3, §4
E. faecalis strain 2 (collection, MDR) vanA/B negative; aminoglycosides high-level resistant to aminoglycosides (gentamicin and strseptomycin) and ampicillin.

[8] = system: tumor cell line H-460 NCI; design: method as in PMID 32920362; settings: ± SD, ref [17], read-out: IC50 (concentration required for 50% inhibition of cell growth); cited from earlier work
[9] = Staphylococcus aureus, MRSA, modal value of three replicates, read-out: MIC
[10] = Staphylococcus aureus, MRSA, modal value, read-out: MIC
[11] = Staphylococcus aureus, MRSA, modal value
[12] = Enterococcus faecalis, modal value
[13] = Enterococcus faecalis, modal value of three replicates, read-out: MIC
[14] = Enterococcus faecalis, modal value, read-out: MIC
[15] = modal value of three replicates

| Structure (SMILES) | MIC [1, 9] [µg/mL] | MIC [1, 10] [µM] | MBC [1, 11] | MBC [2, 12] | MIC [2, 13] [µg/mL] | MIC [2, 14] [µM] | IC50 [3] [µM] | MIC [1, 15] | bactericidal or bacteriostatic activity (killing rate = MBC/MIC) [1] | MIC [2, 15] | MBC [4] | MIC [4] | MBC [5] | MIC [5] | MBC [6] | MIC [6] | MBC [7] | MIC [7] | IC50 [8] [µM] |
| --- | --- | --- | --- | --- | --- | --- | --- | --- | --- | --- | --- | --- | --- | --- | --- | --- | --- | --- | --- |
| O=C(O)/C=C/c1ccc(-c2cc(CNC(=O)Nc3ccccc3)c(O)c(C34CC5CC(CC(C5)C3)C4)c2)cc1 [Compound 14] | 8 | 15 | 8 µg/mL and 15 µM | 16 µg/mL and 31 µM | 4 | 8 | > 10 |  |  |  |  |  |  |  |  |  |  |  |  |
| CC(C)(C)ON=Cc1cc(/C=C/C(=O)O)ccc1-c1ccc(O)c(C23CC4CC(CC(C4)C2)C3)c1 [Compound 16] | 4 | 8 | 4 µg/mL and 8 µM | 4 µg/mL and 8 µM | 2 to 8 | 4 |  | 4 [4] µg/mL | bactericidal effect | 2 µg/mL | 4 µg/mL and 8 µM | 2 µg/mL and 4 µM | 2 µg/mL and 4 µM | 2 µg/mL and 4 µM | 8 µg/mL and 16 µM | 2 µg/mL and 4 µM | 8 µg/mL and 16 µM | 2 µg/mL and 4 µM | > 10 |
| CON=Cc1cc(/C=C/C(=O)O)ccc1-c1ccc(O)c(C23CC4CC(CC(C4)C2)C3)c1 [Compound 17] | 4 | 9 | 4 µg/mL and 9 µM | 16 µg/mL and 38 µM |  | 19 |  | 4 [4] µg/mL | bactericidal effect | 2 to 8 µg/mL and 8 µg/mL | 4 µg/mL and 10 µM | 2 µg/mL and 5 µM | 32 µg/mL and 74 µM | 4 µg/mL and 10 µM | 32 µg/mL and 74 µM | 8 µg/mL and 18 µM | 16 µg/mL and 36 µM | 8 µg/mL and 18 µM | > 10 |
| O=C(O)/C=C/c1ccc(-c2ccc(O)c(C34CC5CC(CC(C5)C3)C4)c2)c(C=NOCC(=O)O)c1 [Compound 18] |  | 269 |  |  |  | 269 |  | 32 to 128 µg/mL and 128 µg/mL |  | 32 to 128 µg/mL and 128 µg/mL |  |  |  |  |  |  |  |  | > 10 |
| N=C(N)NCc1cc(/C=C/C(=O)O)ccc1-c1ccc(O)c(C23CC4CC(CC(C4)C2)C3)c1 [Compound 19] | 32 to 128 | 72 | 64 µg/mL and 144 µM | 64 µg/mL and 144 µM | 32 to 128 | 72 |  | 32 µg/mL |  | 32 µg/mL |  |  |  |  |  |  |  |  | > 10 |
| O=Cc1cc(/C=C/C(=O)O)ccc1-c1ccc(O)c(C23CC4CC(CC(C4)C2)C3)c1 [Compound 20] | 2 | 5 | 32 µg/mL and 80 µM |  | 8 | 20 |  |  |  |  |  |  |  |  |  |  |  |  | 3.2 ± 0.2 |
